# Experimental data: patent US7919329B2, “Method for screening for agents that affect food intake” (Oregon Health & Science University, priority 2001, dated 2011)
# Like-named read-outs stand apart in the source and are kept apart here. No end group written: not given here.
# Tests used:
# POMC neurons [1] = test: GABAergic IPSCs recorded in POMC neurons of ARC slices; assay type: cell-based, mouse
# POMC neurons [2] = test: Action potential frequency / firing rate of POMC neurons (whole cell and loose cell-attached); assay type: cell-based, mouse; conditions: for POMC neuron firing rate (frequency of action potentials): fenfluramine 20 μM, loose-cell-attached, n=3
# POMC neurons [3] = test: Whole cell recordings of membrane potential of EGFP-labeled POMC neurons in arcuate (ARC) slices; assay type: cell-based, mouse
# hypothalamic explants = hypothalamic explants (Batterham et al.); cited from earlier work
# POMC neurons [4] = test: I-V relationships of drug-induced currents in POMC neurons; assay type: cell-based, mouse; conditions: leptin 100 nM, slow voltage ramps
# [5] = system: non-POMC neurons in the arcuate nucleus; test: Membrane potential of non-fluorescent (non-POMC) neurons in the arcuate nucleus; assay type: cell-based, mouse; conditions: 13 cells tested; also hyperpolarized 5 and depolarized 3
molecule,measurement,setting,value
D-Trp^8-γMSH,increase of frequency of GABAergic IPSCs,"POMC neurons [1]; D-Trp8-γMSH 7 nM, 3 of 4 POMC neurons",280±90%
same,frequency of action potentials,POMC neurons [2]; D-Trp8-γMSH 7 nM,decreased the frequency of action potentials
"CCNC(C)Cc1cccc(C(F)(F)F)c1 (stereo not drawn) [Fenfluramine, fenfluramine]",resting membrane potential of POMC neurons (depolarization),POMC neurons [3],depolarized POMC neurons
same,POMC neuron firing rate (frequency of action potentials),POMC neurons [2],two fold increase
same,POMC neuron firing rate (frequency of action potentials),POMC neurons [2]; listed as d-FEN,doubling
"Clc1cccc(N2CCNCC2)c1 [mCPP, 1-(3-Chlorophenyl)piperazine]",resting membrane potential of POMC neurons (depolarization),POMC neurons [3],depolarized POMC neurons
"N-acetyl (Leu^28, Leu^31) NPY (24-36) (Ac-LRHYLNLLTRQRY; ends and bridges not checked) [Y2A]",depolarization of POMC neurons,"POMC neurons [3]; whole cell, PYY3-36 (10 nM, FIG. 6a) n=22, 19 of 22 depolarized, Y2A n=9",8.7±1.8 mV
same,reduction of frequency of IPSCs onto POMC neurons,"POMC neurons [1]; PYY3-36 (50 nM, FIG. 6c) n=13, Y2A n=8",44.4±9.3%
same,A-MSH release,hypothalamic explants,concomitant increase in A-MSH release
same,NPY release,hypothalamic explants,significantly decreased NPY release
leptin: adipostatic hormone,time to depolarization after addition,POMC neurons [3]; leptin 0.1-100 nM,2 to 10 min
same,depolarization of POMC cells,"POMC neurons [3]; leptin 0.1-100 nM, 72 of 77 POMC cells",3-30 mV
same,inhibition of IPSCs in the presence of tetrodotoxin (TTX),POMC neurons [1],still inhibited IPSCs
same,decrease of frequency of GABAergic IPSCs,"POMC neurons [1]; 100 nM, leptin in 5 out of 15 cells, NPY in all 12 POMC cells tested",25%
same,reversal of small inward current,POMC neurons [4],approximately −20 mV
same,effect on adjacent non-fluorescent ARC cells,[5],no effect on 5 of 13 adjacent non-fluorescent cells tested
"ghrelin: agent known to increase feeding, caloric intake, and appetite, and decrease energy expenditure (GSSFLSPEHQRVQQRKESKKPPAKLQPR; ends and bridges not checked; UniProt Q9UBU3 24-51, looked up)","hyperpolarization of POMC neurons, mean","POMC neurons [3]; ghrelin 50 nM, three minutes, whole cell",1.47±0.7 mV
same,frequency of IPSCs in POMC neurons,POMC neurons [1]; ghrelin 50 nM,increase in the frequency of IPSCs
same,decrease of action potential firing rate of POMC neurons,"POMC neurons [2]; ghrelin 50 nM, loose cell attached mode",50%
neuropeptide Y [NPY],hyperpolarization of POMC neurons (average),"POMC neurons [3]; NPY, n=3, all POMC neurons tested",9±6 mV
same,inhibition of IPSCs in the presence of tetrodotoxin (TTX),POMC neurons [1],still inhibited IPSCs
same,time to decrease of IPSC frequency,POMC neurons [1]; NPY 100 nM,≤ 3 min
picrotoxin,IPSCs,POMC neurons [1],blocked all IPSCs
"NC1=N[C@H](O)[C@H]2[C@H]3O[C@]4(O)O[C@@H]([C@@H](O)[C@@]2(N1)[C@@H]4O)[C@]3(O)CO [TTX, tetrodotoxin]",large amplitude IPSCs,POMC neurons [1],abolished large IPSCs
"Clc1cncc(N2CCNCC2)n1 [MK 212, 6-Chloro-2-(1-piperazinyl)pyrazine]",resting membrane potential of POMC neurons (depolarization),POMC neurons [3],depolarized POMC neurons
met-enkephalin (YGGFM),spontaneous action potential generation,POMC neurons [2],prevented spontaneous action potential generation
NCCc1c[nH]c2ccc(O)cc12 [serotonin],resting membrane potential of POMC neurons (depolarization),"POMC neurons [3]; serotonin receptor agonists bath-applied four minutes, whole cell, n=4-8 per dose",increased the resting membrane potential (depolarized)
